# Experimental data from US20230330107A1, “METHODS TO PREVENT HIGH-GRADE SEROUS OVARIAN CANCER AND BREAST CANCER BY ADMINISTERING ANTIPROGESTINS” (priority 2020, published 2023).
# Where “and” joins values, the source holds several entries; their conditions need not be identical. Equal entries are not always repeated. Entries after “also recorded” stand apart in the source; their conditions may differ.
# Tests used:
# [1] = system: ovariectomized DKO mice; type: in vivo
# From the text: (§1) Generation of DKO and cPR-DKO mice. DKO mice (Dicer1^flox/flox Pten flox/flox Amhr2^cre/+) were generated. A mouse line carrying Pgr^flox/flox, a conditional progesterone receptor (PR) gene (cPR), was provided by Drs. John Lydon and Francesco DeMayo. Conditional PR (Pgr^flox/flox)) mice were crossed with DKO mice, generating cPR- DKO mice (Pgr^flox/floxDicer1^flox/flox Pten^flox/flox Amhr2^cre/+). These Dicer1-Pten double-knockout (DKO) mice developed metastatic HGSCs arising from the fallopian tube with 100% penetrance. […] All DKO mice die of widespread peritoneal metastases. Besides mirroring the clinical features of human HGSC, these mouse HGSCs closely resemble human HGSC with histopathological, molecular, and genomic similarities. Mouse use and experiments were approved by the Institutional Animal Care and Use Committee (IACUC) at Indiana University School of Medicine.
# Mouse bilateral ovariectomy. To examine the effect of ovary on HGSC development in the fallopian tube, both ovaries were surgically excised with the fallopian tubes remaining intact in DKO mice. The surgery was performed at 5-6 weeks of age, when there is no sign of tumors in the fallopian tube. These ovary-deficient DKO mice were then monitored for tumor development. Another set of DKO mice without surgery served as controls. Prior to surgery, DKO mice were anesthetized using Avertin (2,2,2,-tribromoethano) (125-250 mg/kg) (Sigma-Aldrich, St. Louis, Missouri, USA). For analgesia, Carprofen (5-10 mg/kg) (TCI America, Portland, OR, USA) was used a one dose pre-operatively and every 12 hours thereafter for 24-48 hours post-operatively.
# (§2) Hormone pellet implantation. To evaluate the effects of steroid hormones on HGSC development, upon ovariectomy at 5-6 weeks of age, DKO mice were implanted subcutaneously with a pellet of 17-β estradiol (E2) (0.72 mg/90 days/mouse), progesterone (P4) (25 mg/90 days/mouse), or combined E2 (0.72 mg) & P4 (25 mg). Also, for shorter periods of P4 exposure, ovariectomized DKO mice were treated with a P4 pellet of 2 mg (1 week) or 6 mg (3 weeks). Another set of ovariectomized DKO mice implanted with a placebo (a pellet without hormone) served as controls. […] For a control group, DKO mice received a placebo pellet for mifepristone. After anesthesia, a pellet was inserted subcutaneously (SQ) after a single skin incision (0.5-1.0 cm) on the back near ovary location. The skin incision was closed with either monofilament suture or wound clips. The pellets were purchased from Innovative Research of America (Sarasota, FL, USA).
# (§3) Statistical analysis. Statistical analyses were performed using a GraphPad Prism software (Version 8, GraphPad Software, Inc.). P values less than 0.05 were considered statistically significant. Log-rank test was used to compare survival distributions between different experimental groups of mice; Student's t-test to compare hormone levels between placebo-treated ovariectomized DKO mice and progesterone (P4)-treated ovariectomized DKO mice at 1 week, 3 weeks, and 3 months; Student's t-test to compare hormone levels between ovariectomized DKO mice (Ovex) and each experimental group of DKO mice; and Fisher's exact test to analyze PR expression in benign and malignant ovarian tumors.
# Progesterone induces HGSC with metastatic potential in ovary-deficient DKO mice. Ovary-deficient DKO mice were treated with steroid hormones. […] Tumor development and mouse survival were then monitored.
# [2] = Measurement of serum hormone levels (ELISA) in ovariectomized DKO mice; type: in vivo, mouse; details: P4-treated ovariectomized DKO mice
# Procedure: Measurement of hormone levels. Blood samples were collected in serum separation tubes (BD Microtainer® Tube; 365967; BD Biosciences, San Jose, CA, USA) from DKO mice or ovariectomized DKO mice with or without hormone treatment. Serum was isolated by centrifugating blood at 14,000 rpm for 5 minutes at room temperature. Measurements of serum progesterone (P4), 17-β estradiol (E2), testosterone (T), follicle-stimulating hormone (FSH), and luteinizing hormone (LH) levels were performed using ELISA (enzyme-linked immunoassay: P4, E2, and T) or RIA (radioimmunoassay: FSH and LH) at the Center for Research Ligand Assay and Analysis Core in Reproduction at the University of Virginia.
# [3] = system: DKO mice (Dicer1-Pten double-knockout, HGSC model); experiment: Mifepristone pellet in DKO mice with intact ovaries: HGSC development and survival; type: in vivo, mouse; details: for median survival: DKO mice, range in brackets
# From the text: as §1, §2, §3
# Progesterone generates its biological effects through the progesterone receptors (PR). Thus, to evaluate further whether progesterone signaling is critical to the development of HGSC with metastatic potential, DKO mice were treated with the PR antagonist mifepristone (RU486), an antiprogestin, that acts by binding to PR and inhibiting the transcription of its target genes. […] As expected, DKO mice treated with a placebo developed primary HGSC coupled with abundant peritoneal HGSC metastases (FIG. 1A-B). […] Histologically, the fallopian tubes from mifepristone-treated mice were composed of cystic and fibrous tissues as well as small segments of carcinoma cells in the stroma, accompanied by limited peritoneal metastasis (FIG. 1E-G).
# [4] = mifepristone 3 mg/m for 3 months
# [5] = mifepristone 16.7 mg/m for 6 months
smiles,measurement,setting,value
"C[C@]12CC[C@@H]3c4ccc(O)cc4CC[C@H]3[C@@H]1CC[C@@H]2O [E2, 17-β estradiol]",ovariectomized DKO mice with tumors or swelling in the uterus,"[1]; female, DKO (Dicer1flox/flox Ptenflox/flox Amhr2cre/+), mouse, in vivo, 3 months",90.9%
same,tumor phenotype in ovariectomized DKO mice (in words),[1]; s.c. hormone pellet for 3 months,did not produce any tumors in the fallopian tube
"CC(=O)[C@H]1CC[C@H]2[C@@H]3CCC4=CC(=O)CC[C@]4(C)[C@H]3CC[C@]12C [P4, progesterone]",serum progesterone levels (in words),[2],elevated serum progesterone levels
same,hazard ratio (HR) of survival vs placebo-treated ovariectomized DKO mice,[1]; P4 25 mg pellet for 3 months,3.01
same,ovariectomized DKO mice that developed predominantly HGSC in the fallopian tube with widespread peritoneal metastases and ascites,"[1]; P4 25 mg pellet for 3 months, 32/32 mice",100%
same,median survival,"[1]; ovariectomized DKO mice, s.c. hormone pellet for 3 months (P4 25 mg; E2 0.72 mg), range in brackets",6.5 months of age
"CC#C[C@]1(O)CC[C@H]2[C@@H]3CCC4=CC(=O)CCC4=C3[C@@H](c3ccc(N(C)C)cc3)C[C@@]21C [mifepristone, (8S,11R,13S,14S,17S)-11-[4-(dimethylamino)phenyl]-17-hydroxy-13-methyl-17-prop-1-ynyl-1,2,6,7,8,11,12,14,15,16-decahydrocyclopenta[a]phenanthren-3-one]",median survival,"[3]; mifepristone 3 mg/m for 3 months, s.c. pellet from 5-6 weeks of age",11.2 (5.9-21.3) months of age
same,median survival,"[3]; mifepristone 16.7 mg/m for 6 months, s.c. pellets",13.1 (6.6-24.3) months of age and 13.1 months of age
same,DKO mice not inhibited by mifepristone (HGSC development and peritoneal metastasis),"[3]; high dose, 16.7 mg/m for 6 m, 2/21 mice",9.5%
same,DKO mice that still developed fallopian tube HGSC and widespread peritoneal metastases,"[3]; low-dose group, 3 mg/m, 7/21 mice",33.3%
same,hazard ratio (HR) of survival vs placebo-treated DKO mice,[3]; [4],0.40
same,lived longer than DKO mice with placebo,[3]; [4],~4 months
same,effect on HGSC development and peritoneal metastasis (in words),[3]; mifepristone 3 mg/m for 3 months vs placebo,developed little peritoneal metastasis; also recorded: effectively suppressed HGSC development in the fallopian tube and peritoneal metastasis
same,effect on HGSC development and peritoneal metastasis (in words),[3]; mifepristone 16.7 mg/m for 6 m,effectively suppressed HGSC development and peritoneal metastasis
same,hazard ratio (HR) of survival vs placebo-treated DKO mice,[3]; [5],0.13
same,lived longer than placebo-treated DKO mice,[3]; [5],~6 months
